For one assay, the target named is T1, TrkA (or NTRK1) (Homo sapiens, UniProt P04629).
T1 construct: using the soluble intracellular segment of theses receptors, containing the kinase activity; purchased Millipore
The assay can be described thus: In vitro kinase glo plus-based kinase assay, TrkA. The format is biochemical. The settings on record: comparative experiments; 30 μM ATP. On the procedure:
(§1) Plates were removed from incubator, and 50 μl of kinase-glo plus was added to each well, followed by a 10 minute incubation at room temperature. The luciferase-induced luminescence, which is proportional to the ATP remaining in the well, was measured on a luminometer. Controls on each plates included wells with the kinase alone (maximal ATP consumption, or 0% inhibition), wells without the kinase (maximal ATP signal or 100% inhibition), and wells with 20 μM staurosporine (positive control of inhibition).
Background: In Kinase-Glo more light means more ATP remaining.

In a further assay the target is T2, TrkB (or NTRK2) (Homo sapiens, UniProt Q16620).
T2 construct: using the soluble intracellular segment of theses receptors, containing the kinase activity; purchased Invitrogen
Nature of the assay: In vitro kinase glo plus-based kinase assay, TrkB. The format is biochemical. The settings on record: comparative experiments; 40 μM ATP. How it is done: as §1, with “An in vitro kinase glo plus-based kinase assay (Promega) was developed in a 96 wells assay plate format to assess the inhibiting properties of compounds on tropomyosin related kinases (Trk) receptors, using the soluble intracellular segment of theses receptors, containing the kinase activity (TrkA (or NTRK1; 400 ng/well; […] Invitrogen)). […] Plates” for “Plates”, “inhibition). […] N=42; […]” for “inhibition).”

A further assay has as its target T3, TrkA (Homo sapiens, UniProt P04629).
T3 construct: purchased Millipore or Kinome Scan (DiscoverX)
The assay can be described thus: Test for measuring inhibition of TrkA kinase (Millipore or Kinome Scan, manufacturer's protocols). The format is biochemical. The settings on record: read-out: Enzymatic inhibition at 10 nM (%) TrkA. The text has this:
(§2) Test for Measuring Inhibition of TrkA, TrkB or TrkC Kinase
(§3) These kinases are produced by Millipore or Kinome Scan (DiscoverX) and are screened according to the manufacturer's protocols.

A further assay concerns the target T4, TrkB (Homo sapiens, UniProt Q16620).
T4 construct: purchased Millipore or Kinome Scan (DiscoverX)
Nature of the assay: Test for measuring inhibition of TrkB kinase (Millipore or Kinome Scan, manufacturer's protocols). The format is biochemical. The settings on record: read-out: Enzymatic inhibition at 10 nM (%) TrkB.
Excerpt: as §2, §3

In the next assay the target is T5, TrkC (Homo sapiens, UniProt Q16288).
T5 construct: purchased Millipore or Kinome Scan (DiscoverX)
Nature of the assay: Test for measuring inhibition of TrkC kinase (Millipore or Kinome Scan, manufacturer's protocols). The settings on record: read-out: Enzymatic inhibition at 10 nM (%) TrkC. The format is biochemical.
Excerpt: as §2, §3

The next assay relates to NGF-induced hyperalgesia. Nature of the assay: In vivo analgesic activity against NGF-induced hyperalgesia (hot plate). The settings on record: mouse; for inhibition of NGF-induced hyperalgesia (latency time): given 30 min before NGF, hot plate four hours after NGF. On the procedure:
In Vivo Analgesic Activity Against NGF-Induced Hyperalgesia Compounds of general formula (I), and particularly compound 30 have been tested in vivo in the mouse receiving an intraplantar injection of NGF. This treatment elicits thermal hyperalgesia (Schuligoi et al., 1998, Neuroscience Letters 252:147-149). Briefly, male mice received a 10 μl subcutaneous injection of NGFβ (1 μg; SIGMA) into the plantar surface of the right hind paw. Following the injection, mice were returned to their cages. Four hours after NGF injection, mice were placed on the centre of the hot plate analgesimeter (BIO-HC2.00, Bioseb, France), and the latency time to the first brisk lift or lick of a hind paw or jumping will be recorded. A maximum cut-off time of 60 sec is used to prevent tissue damage. Results are given as the mean±s.e.m. of the latency time. Test compounds were given 30 min before NGF injection.

The test system of assay [1] is formalin test (paw licking). Nature of the assay: In vivo analgesic activity in the formalin test. The settings on record: rats, second phase of the formalin test, vs. vehicle-treated animals, P<0.05. Details: species or system rat. The source says:
In Vivo Analgesic Activity in the Formalin Test in Rats The method was adapted from Wheeler-Aceto et al. (Pain, 1990, 40:229-38) and Bardin et al. (2003, Pharmacology 67: 182-194). In the second phase of the test, Compound 30 inhibited paw licking by 44% vs. vehicle-treated animals (P<0.05 by ANOVA).

Assay [2] relates to inflammatory pain induced by Complete Freund Adjuvant (CFA). The assay can be described thus: In vivo analgesic activity against acute and chronic inflammatory pain induced by Complete Freund Adjuvant (CFA). The settings on record: rat. The text has this: In Vivo Analgesic Activity Against Acute and Chronic Inflammatory Pain Induced by Complete Freund Adjuvant (CFA)
Male Sprague-Dawley rats [Crl:OFA(SD) Charles River Lyon, France] weighing 160-180 g upon arrival were used. Rats were first daily habituated to handling and to the test apparatus used for the von-Frey and hot-plate models one week before the induction of inflammation. On the following Monday, they were subjected to nociceptive tests for determination of basal scores. Then, rats will be given a 100 μl subcutaneous injection of CFA (1 mg/1 ml; Sigma) into the plantar surface of the right hind paw (day 0: D0). Saline was injected by the same route in the placebo group.
Then each rat was placed on an elevated plastic mesh in a clear plastic cage and the number of spontaneous flinches (measurement of spontaneous pain) was recorded during 10 min. Mechanical allodynia was assessed using the von Frey Hair test. Each rat was placed on an elevated plastic mesh in a clear plastic cage and allowed to adapt to the testing environment for at least 5 min. The von Frey Hairs (Semmes-Weinstein monofilaments, Stoelting Ill., USA; 0.6, 1.4, 2, 4, 6, 8, 10, and 15 g) was applied to the plantar surface of the injected paw from below the mesh floor for […] in the ascending order. The threshold was determined as the lowest force that evoked a withdrawal response. The test was repeated three times with an interval of 5 min between each test. The paw withdrawal score to the tactile stimulus was determined as the average of the 3 measurements. Animals received intraperitoneal or oral injections of test compounds. […] Compound completely or nearly completely reversed spontaneous pain from 0.16 mg/kg and mechanical allodynia from 2.5 mg/kg.

A further assay has as its system bone cancer pain. The assay can be described thus: In vivo analgesic activity against chronic pain in a model of bone cancer pain (NCTC 2472 fibrosarcoma cells in tibia). Details: species or system mouse. The settings on record: C3H/HeNCrl mice. How it is done:
In Vivo Analgesic Activity Against Chronic Pain in a Model of Bone Cancer Pain
Bone cancer produces one of the most painful conditions that affect humans and animals. […] Several models of murine osteosarcoma-induced pain have been developed (Pacharinsak and Beitz, Animal models of cancer pain. Comp Med. 2008 June; 58:220-33.).
We induced bone cancer pain by implanting 10 μl of PBS containing 2×10^5 NCTC 2472 osteolytic fibrosarcoma cells into the tibia of 5-6 week-old C3H/HeNCrl mice under isoflurane anesthesia. The presence of these cells induces osteolytic lesions in bone due to both an increase in the number of osteoclasts and to their activation, which leads to the destruction of bone tissue and the invasion of the adjacent soft tissue and pain related behaviours. Pain-related behaviours were evaluated both prior to and at 3, 7, 10, 14 and 17 days following tumor cell injection. The following behaviors were evaluated: • Limb use during spontaneous ambulation on a scale of 0-4 where 0=normal use and 4=no use of the injected hind paw; • Light touch-evoked pain. Light touch induced flinching were measured after the 1 min period of non noxious stimulation of the tumor injected paw with a small paint brush. The numbers of flinches were recorded over 5 min. […]

T2 sequence (Q16620 455-822 limits assumed): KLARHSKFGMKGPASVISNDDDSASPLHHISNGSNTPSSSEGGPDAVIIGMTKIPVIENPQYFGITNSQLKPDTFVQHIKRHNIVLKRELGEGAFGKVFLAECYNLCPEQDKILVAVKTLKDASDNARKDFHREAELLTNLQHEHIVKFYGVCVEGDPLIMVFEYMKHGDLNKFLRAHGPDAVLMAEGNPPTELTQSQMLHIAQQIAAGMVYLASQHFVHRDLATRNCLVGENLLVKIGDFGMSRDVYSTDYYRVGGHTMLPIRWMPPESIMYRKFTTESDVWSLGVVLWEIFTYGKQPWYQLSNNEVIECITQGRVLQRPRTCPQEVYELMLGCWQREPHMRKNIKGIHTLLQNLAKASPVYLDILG
T1 sequence (P04629 440-796 limits assumed): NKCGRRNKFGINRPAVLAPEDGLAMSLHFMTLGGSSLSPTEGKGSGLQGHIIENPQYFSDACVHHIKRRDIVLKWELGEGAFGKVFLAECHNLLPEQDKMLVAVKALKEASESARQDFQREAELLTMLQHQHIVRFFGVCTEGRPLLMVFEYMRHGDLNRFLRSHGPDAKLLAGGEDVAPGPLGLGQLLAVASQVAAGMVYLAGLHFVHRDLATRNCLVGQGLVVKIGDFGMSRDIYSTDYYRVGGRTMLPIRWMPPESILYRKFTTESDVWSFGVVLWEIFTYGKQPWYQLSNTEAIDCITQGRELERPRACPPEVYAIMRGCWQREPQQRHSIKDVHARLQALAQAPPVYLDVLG
T3 sequence (P04629 33-796): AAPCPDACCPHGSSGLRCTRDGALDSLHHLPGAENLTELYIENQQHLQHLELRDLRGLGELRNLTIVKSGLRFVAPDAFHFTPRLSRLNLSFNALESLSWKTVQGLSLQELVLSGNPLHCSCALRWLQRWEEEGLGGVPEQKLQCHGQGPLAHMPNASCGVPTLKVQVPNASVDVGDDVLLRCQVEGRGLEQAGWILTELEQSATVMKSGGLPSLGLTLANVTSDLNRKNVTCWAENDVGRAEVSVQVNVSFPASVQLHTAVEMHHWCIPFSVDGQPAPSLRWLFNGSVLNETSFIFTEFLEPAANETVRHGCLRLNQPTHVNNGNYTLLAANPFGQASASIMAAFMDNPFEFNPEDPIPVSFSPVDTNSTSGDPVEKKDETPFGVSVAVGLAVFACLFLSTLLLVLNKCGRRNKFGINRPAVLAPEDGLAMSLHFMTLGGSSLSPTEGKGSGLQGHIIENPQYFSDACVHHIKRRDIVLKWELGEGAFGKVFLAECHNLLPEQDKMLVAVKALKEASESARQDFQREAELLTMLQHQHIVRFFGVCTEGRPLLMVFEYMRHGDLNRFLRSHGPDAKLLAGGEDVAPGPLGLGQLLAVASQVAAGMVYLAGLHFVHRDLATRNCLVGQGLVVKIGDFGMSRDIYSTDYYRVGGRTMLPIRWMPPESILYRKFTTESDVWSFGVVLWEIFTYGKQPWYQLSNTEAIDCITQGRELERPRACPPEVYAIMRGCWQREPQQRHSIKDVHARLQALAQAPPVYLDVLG
T4 sequence (Q16620 32-822): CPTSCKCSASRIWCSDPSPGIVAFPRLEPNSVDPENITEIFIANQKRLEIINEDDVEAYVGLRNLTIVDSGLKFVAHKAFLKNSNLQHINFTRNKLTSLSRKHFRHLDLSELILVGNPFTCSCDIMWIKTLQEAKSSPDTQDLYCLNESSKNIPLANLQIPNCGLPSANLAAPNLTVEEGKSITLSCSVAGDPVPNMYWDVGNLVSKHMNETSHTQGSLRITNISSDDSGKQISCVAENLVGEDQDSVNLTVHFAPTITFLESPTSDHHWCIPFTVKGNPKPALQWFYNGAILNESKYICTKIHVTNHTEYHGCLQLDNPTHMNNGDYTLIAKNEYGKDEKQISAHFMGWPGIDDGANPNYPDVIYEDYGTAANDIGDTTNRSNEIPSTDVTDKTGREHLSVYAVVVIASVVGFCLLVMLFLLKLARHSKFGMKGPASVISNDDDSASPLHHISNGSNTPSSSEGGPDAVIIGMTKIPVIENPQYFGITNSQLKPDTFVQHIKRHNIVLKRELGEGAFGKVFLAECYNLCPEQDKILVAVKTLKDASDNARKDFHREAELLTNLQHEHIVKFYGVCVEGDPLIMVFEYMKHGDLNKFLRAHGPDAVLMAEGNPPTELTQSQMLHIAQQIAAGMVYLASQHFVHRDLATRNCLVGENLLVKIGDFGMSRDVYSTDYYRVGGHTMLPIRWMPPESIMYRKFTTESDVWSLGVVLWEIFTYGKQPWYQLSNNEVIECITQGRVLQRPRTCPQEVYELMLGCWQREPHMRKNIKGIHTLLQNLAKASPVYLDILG
T5 sequence (Q16288 32-839): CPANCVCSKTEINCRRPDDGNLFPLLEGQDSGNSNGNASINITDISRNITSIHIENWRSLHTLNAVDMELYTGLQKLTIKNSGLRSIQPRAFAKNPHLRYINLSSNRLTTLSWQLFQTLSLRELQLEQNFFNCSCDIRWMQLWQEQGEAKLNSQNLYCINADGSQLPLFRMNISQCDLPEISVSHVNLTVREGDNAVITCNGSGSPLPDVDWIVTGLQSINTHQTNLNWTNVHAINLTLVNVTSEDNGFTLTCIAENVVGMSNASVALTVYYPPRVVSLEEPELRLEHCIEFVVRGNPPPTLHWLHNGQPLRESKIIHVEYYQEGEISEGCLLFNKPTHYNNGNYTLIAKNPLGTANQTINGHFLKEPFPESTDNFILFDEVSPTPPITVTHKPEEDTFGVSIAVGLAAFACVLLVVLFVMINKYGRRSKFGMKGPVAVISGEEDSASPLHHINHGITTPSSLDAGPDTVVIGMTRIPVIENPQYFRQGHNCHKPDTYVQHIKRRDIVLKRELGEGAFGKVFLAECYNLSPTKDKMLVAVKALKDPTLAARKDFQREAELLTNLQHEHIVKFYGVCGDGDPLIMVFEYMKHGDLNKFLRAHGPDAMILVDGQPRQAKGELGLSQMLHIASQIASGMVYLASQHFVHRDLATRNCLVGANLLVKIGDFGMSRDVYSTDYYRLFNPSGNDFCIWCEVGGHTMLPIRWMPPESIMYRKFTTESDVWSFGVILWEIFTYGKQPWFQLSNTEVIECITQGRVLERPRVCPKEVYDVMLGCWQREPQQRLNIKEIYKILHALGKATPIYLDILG

The term IC50 denotes the point on the concentration scale where inhibition reaches its midpoint. With `CN1CCN(c2ccc(C(=O)Nc3n[nH]c4nc(Nc5ccc(F)cc5F)ncc34)c(NC3CCOCC3)c2)CC1` [B], the 50% inhibitory concentration (IC50) at TrkA (or NTRK1) is 3.3 µM; on TrkB (or NTRK2), 18 µM.
Broadly, the inhibition is how much of the control response was suppressed. For the molecule `CN1CCN(c2ccc(C(=O)Nc3n[nH]c4ncc(Sc5cc(F)cc(F)c5)cc34)c(NC3CCOCC3)c2)CC1` [Compound 30, N-(5-(3,5-difluorophenylthio)-1-H-pyrazolo[3,4-b]pyridine-3-yl)-4-(4-methylpiperazine-1-yl)-2-(tetrahydro-2H-pyran-4-ylamino)benzamide], the inhibition at 0.01 µM is 93.8% on TrkA, 84% at TrkB and 64% on TrkC. In the assay with NGF-induced hyperalgesia (intraperitoneal or oral route, P<0.05 vs NGF alone), the “doses at which complete or nearly complete reversion of NGF-induced hyperalgesia occurred” value is recorded as no more than 10 mg/kg. Besides, the “inhibition of NGF-induced hyperalgesia (latency time)” value with NGF-induced hyperalgesia (intraperitoneal route, FIG. 1A) is “dose-dependently inhibited”; in the assay on NGF-induced hyperalgesia (oral route, FIG. 1B), “dose-dependently inhibited”. Moreover, the “inhibition of paw licking” value in [1] amounted to 44%. Further, the “dose from which spontaneous pain was completely or nearly completely reversed” value in assay [2] (flinches) is listed as no less than 0.16 mg/kg. The “inhibition of spontaneous flinches (acute inflammatory pain)” value in [2] (intraperitoneal injection, FIG. 2A) was “dose-dependently inhibited”. In addition, the “inhibition of mechanical allodynia (von Frey)” value in assay [2] (oral administration, FIG. 2B) is “dose-dependently inhibited”. Further, in assay [2] (von Frey), the “dose from which mechanical allodynia was completely or nearly completely reversed” value is on record as no less than 2.5 mg/kg. The light touch-evoked flinching entry with bone cancer pain (2.5 mg/kg i.p. chronically from day 7, effect from day 8, FIG. 3B) was “significantly reduced”. Besides, the limb use score entry in the assay with bone cancer pain (2.5 mg/kg i.p. chronically from day 7, effect from day 10, FIG. 3A) was “significantly reduced”. In addition, the half-maximal inhibitory concentration (IC50) on TrkA (or NTRK1) is 0.045 µM; on TrkB (or NTRK2), 0.031 µM.
Consider `CN1CCN(c2ccc(C(=O)Nc3n[nH]c4ncc(S(=O)(=O)c5cc(F)cc(F)c5)cc34)c(NC3CCOCC3)c2)CC1` [Compound 27-1, N-(5-(3,5-difluorophenylsulfonyl)-1H-pyrazolo[3,4-b]pyridin-3-yl)-4-(4-methylpiperazin-1-yl)-2-(tetrahydro-2H-pyran-4-ylamino)benzamide], for which the values for the inhibition at 0.01 µM at TrkA, on TrkB and on TrkC were 97.8%, 93% and 96.8%, respectively.
On the same counts, the results for `CN1CCN(c2ccc(C(=O)Nc3n[nH]c4nc(N)c(Sc5cc(F)cc(F)c5)cc34)c(NC3CCOCC3)c2)CC1` [Compound 14-11, N-(6-amino-5-(3,5-difluorophenylthio)-1H-pyrazolo[3,4-b]pyridin-3-yl)-4-(4-methylpiperazin-1-yl)-2-(tetrahydro-2H-pyran-4-ylamino)benzamide] are 97.4%, 88% and 93.4%.
With `CN1CCN(c2ccc(C(=O)Nc3n[nH]c4nc(Nc5cc(F)cc(F)c5)ncc34)c(NC3CCOCC3)c2)CC1` [A], the IC50 was roughly 10 µM at TrkA (or NTRK1) and greater than 100 µM at TrkB (or NTRK2).
Consider `CN1CCN(c2ccc(C(=O)Nc3n[nH]c4ncc(S(=O)(=O)Nc5cc(F)cc(F)c5)cc34)c(NC3CCOCC3)c2)CC1` [Compound 30-8, N-(5-(N-(3,5-difluorophenyl)sulfamoyl)-1H-pyrazolo[3,4-b]pyridin-3-yl)-4-(4-methylpiperazin-1-yl)-2-(tetrahydro-2H-pyran-4-ylamino)benzamide], for which the inhibition at 0.01 µM on TrkA turned out to be 99%; at TrkB it was 96.6%; on TrkC, 97.3%.
For `Nc1n[nH]c2ncc(Sc3cc(F)cc(F)c3)cc12` [D], the 50% inhibitory concentration (IC50) was 22 µM on TrkA (or NTRK1) and 35 µM at TrkB (or NTRK2).
In the same order, the values of `CN1CCN(c2ccc(C(=O)Nc3n[nH]c4nc(Nc5ccc(F)cc5F)ccc34)c(NC3CCOCC3)c2)CC1` [C] are 2.1 µM and 5.8 µM.
`CN1CCN(c2ccc(C(=O)Nc3n[nH]c4ncc(Cc5cc(F)cc(F)c5)cc34)c(NC3CCOCC3)c2)CC1` [Compound 30-9, N-(5-(3,5-difluorobenzyl)-1H-pyrazolo[3,4-b]pyridin-3-yl)-4-(4-methylpiperazin-1-yl)-2-(tetrahydro-2H-pyran-4-ylamino)benzamide]: the inhibition at 0.01 µM at TrkA was 55%; at TrkB it was 98%.

These data come from patent US9381195B2, “Derivatives of azaindazole or diazaindazole type for treating pain” (PIERRE FABRE MEDICAMENT, priority 2012, dated 2016).
